Data set [1] in a line: In vitro skin permeation, Franz diffusion cells. The data set is classed as in vitro ADME, porcine. As to conditions: donor saturated solution in isopropyl myristate; for Q24h, the cumulative amount of drug permeated per unit area at 24 h / Tlag / Jss, the steady-state flux: porcine ear skin, receptor PBS pH 7.4, 32 °C; for Tlag: linear portion of permeation curve extrapolated to the abscissa; for Jss, the steady-state flux: slope of the linear portion of the plots. The source says:
According to the description in our previous report (Xu et al., [2011]), the porcine ears immediately obtained from the killed pig were supplied by local slaughterhouse (Xiangtan, China). The hair of porcine ears was carefully cut off with animal hair clippers. Then, skin grafting knife (Medical Equipment Factory of Shanghai Medical Instruments Co., Ltd., Shanghai, China) was employed to separate the skin and subcutaneous fat, and the skin of thickness in range of 0.6 ± 0.1 mm was obtained. The skin was kept frozen at −20 °C no more than 2 weeks.
Two-chamber Franz diffusion cells (receiver volume of 6.5 mL, effective diffusion area of 2.8 cm^2) were used for the in vitro transdermal experiments. The prepared skin was placed between the cell halves with the SC facing the donor cell. The receptor compartment was filled with phosphate buffered saline (pH 7.4), which was put in a water bath at 32 ± 0.5 °C and stirred with a magnetic bar at 300 rpm. The saturated solution of DCN and its ion-pair compounds in isopropyl myristate was filled in the donor cell, and a glass sheet was employed to cover the supply chamber during the in vitro permeation experiments. Since the experiment started, 1.0 mL sample was withdrawn from the receptor compartment at predetermined time interval 2, 4, 6, 8, 10, 12, 14, and 24 h. Subsequently, the equal volume of fresh PBS was replenished. These investigations were performed with different individual skin at least in triplicate.
(§1) The samples were determined by an LC-20A HPLC system (SHIMADZU, Kyoto, Japan). The separation was achieved on an InertSustain C18 column (4.6 mm × 250 mm, 5 µm, SHIMADZU, Kyoto, Japan) with the flow rate keeping at 1.0 mL/min, the column temperature maintaining at 40 °C and mobile phase consisting of methanol:water (25:75, v/v) with 0.4% phosphoric acid in water. Injection volume for each run was 50 μL, and detection wavelength was 254 nm.

Data set [2] can be described thus: Apparent distribution coefficient (Log P), shake-flask method. Format: physicochemical. Conditions: n-octanol/distilled water, 48 h, 32 °C. The procedure:
as §1

A short description of data set [3]: Equilibrium solubility experiments. The data set is classed as physicochemical. As for the experimental part: The obtained complexes were vibrated by ultrasonic for 10 min then continuously shaken in a water bath at 32 °C until equilibrium.
as §1

The mark [4] stands for this setting: aqueous buffer, thermodynamic from solid, PBS pH 7.4, 32 °C, read-out: Equilibrium solubility PBS (pH 7.4).
The mark [5] stands for this setting: thermodynamic from solid, isopropyl myristate, 32 °C, read-out: Equilibrium solubility IPM.
The mark [6] stands for this setting: thermodynamic from solid, water, 32 °C, read-out: Equilibrium solubility Water.

Consider 14 molecules from paper PMC8843160 (Drug Delivery, 2022).

In brackets after ≈: the same amount, converted by molar mass. Read-outs that look alike come from different tables or passages of the source.

Turning to `CC(=O)Oc1cccc2c1C(=O)c1c(OC(C)=O)cc(C(=O)O)cc1C2=O.CCN` [DCN-ea], in data set [1], the “Q24h, the cumulative amount of drug permeated per unit area at 24 h” value is listed as 2.17 ± 0.30 µg/cm^2; the Tlag was 1.79 ± 0.66 h; the “Jss, the steady-state flux” value worked out at 0.08 ± 0.02 µg/cm^2⋅h^–1. In data set [2], the “Log P” value is reported as “–0.39 ± 0.007”. Also, the “Equilibrium solubility PBS (pH 7.4)” value in data set [3] (PBS pH 7.4, 32 °C, 48 h) was 12155.69 ± 81.21 μg/mL. Further, in data set [3] (isopropyl myristate, 32 °C, 48 h), the “Equilibrium solubility IPM” value turned out to be 92.80 ± 14.10 µg/mL. In data set [3] (water, 32 °C, 48 h), the “Equilibrium solubility Water” value came out at 6928.52 ± 4.80 µg/mL.
As for `CC(=O)Oc1cccc2c1C(=O)c1c(OC(C)=O)cc(C(=O)O)cc1C2=O.OCCNCCO` [DCN-Deta], in data set [1], the “Q24h, the cumulative amount of drug permeated per unit area at 24 h” value was found to be 4.03 ± 0.71 µg/cm^2; the Tlag is reported as 2.16 ± 0.55 h; the “Jss, the steady-state flux” value came to 0.11 ± 0.02 µg/cm^2⋅h^–1.
In the case of `CC(=O)Oc1cccc2c1C(=O)c1c(OC(C)=O)cc(C(=O)O)cc1C2=O.CCCCCCCCN` [DCN-N8], in data set [1], the “Q24h, the cumulative amount of drug permeated per unit area at 24 h” value turned out to be 4.30 ± 0.63 µg/cm^2; the Tlag is on record as 2.15 ± 0.22 h; the “Jss, the steady-state flux” value came out at 0.14 ± 0.03 µg/cm^2⋅h^–1.
On the same counts, the results for `CC(=O)Oc1cccc2c1C(=O)c1c(OC(C)=O)cc(C(=O)O)cc1C2=O.CCCCCCN` [DCN-N6] are 3.86 ± 0.21 µg/cm^2, 1.52 ± 0.36 h and 0.10 ± 0.02 µg/cm^2⋅h^–1.
`CC(=O)Oc1cccc2c1C(=O)c1c(OC(C)=O)cc(C(=O)O)cc1C2=O.CCCCCCCCCCCCN` [DCN-N12]: in data set [1], the Tlag is reported as 2.50 ± 0.18 h and the “Jss, the steady-state flux” value was 0.34 ± 0.02 µg/cm^2⋅h^–1.
`CC(=O)Oc1cccc2c1C(=O)c1c(OC(C)=O)cc(C(=O)O)cc1C2=O.CCCCCCCCCCN` [DCN-N10]: in data set [1], the “Q24h, the cumulative amount of drug permeated per unit area at 24 h” value is 6.41 ± 0.23 µg/cm^2; the Tlag was 1.38 ± 0.14 h; the “Jss, the steady-state flux” value was determined as 0.20 ± 0.03 µg/cm^2⋅h^–1.
On the same counts, the results for `CC(=O)Oc1cccc2c1C(=O)c1c(OC(C)=O)cc(C(=O)O)cc1C2=O.CCCCCCCCCCCCCCN` [DCN-N14] are 7.03 ± 1.56 µg/cm^2, 1.31 ± 0.11 h and 0.24 ± 0.05 µg/cm^2⋅h^–1.
On the same counts, the results for `CC(=O)Oc1cccc2c1C(=O)c1c(OC(C)=O)cc(C(=O)O)cc1C2=O.CCCCCCCCCCCCCCCCCCN` [DCN-N18] are 5.97 ± 1.25 µg/cm^2, 1.42 ± 0.52 h and 0.20 ± 0.01 µg/cm^2⋅h^–1.
Taken in the same sequence, the figures for `CC(=O)Oc1cccc2c1C(=O)c1c(OC(C)=O)cc(C(=O)O)cc1C2=O.CCCCCCCCCCCCCCCCN` [DCN-N16] were 6.44 ± 0.36 µg/cm^2, 1.28 ± 0.23 h and 0.22 ± 0.01 µg/cm^2⋅h^–1.
On to `CC(=O)Oc1cccc2c1C(=O)c1c(OC(C)=O)cc(C(=O)O)cc1C2=O.NCCO` [DCN-eta], for which the “Q24h, the cumulative amount of drug permeated per unit area at 24 h” value in data set [1] is reported as 3.04 ± 0.67 µg/cm^2. For the same molecule, the Tlag in data set [1] was 1.41 ± 0.56 h. For the same molecule, the “Jss, the steady-state flux” value in data set [1] is 0.09 ± 0.04 µg/cm^2⋅h^–1. The values for the solubility thermodynamic at 48 h in data set [3] (setting [4]), in data set [3] (setting [5]) and in data set [3] (setting [6]) were 6100 ± 24.7 µg/mL, 121.6 ± 1.2 µg/mL and 3060 ± 35.8 µg/mL, respectively.
Take `CC(=O)Oc1cccc2c1C(=O)c1c(OC(C)=O)cc(C(=O)O)cc1C2=O.CCN(CC)CC` [DCN-Tea]: in data set [1], the “Q24h, the cumulative amount of drug permeated per unit area at 24 h” value is recorded as 2.85 ± 0.64 µg/cm^2; the Tlag is recorded as 3.39 ± 0.55 h; the “Jss, the steady-state flux” value was 0.11 ± 0.04 µg/cm^2⋅h^–1. Besides, the solubility thermodynamic at 48 h in data set [3] (setting [4]) is 8188 ± 44.4 µg/mL. The solubility thermodynamic at 48 h in data set [3] (setting [5]) stood at 1385 ± 13.7 µg/mL. Moreover, the solubility thermodynamic at 48 h in data set [3] (setting [6]) was determined as 3233 ± 12.6 µg/mL.
With `CC(=O)Oc1cccc2c1C(=O)c1c(OC(C)=O)cc(C(=O)O)cc1C2=O` [DCN, Diacerein, reference compound], the “Q24h, the cumulative amount of drug permeated per unit area at 24 h” value in data set [1] was 1.83 ± 0.22 µg/cm^2. The Tlag in data set [1] is listed as 2.68 ± 0.78 h. For the same molecule, in data set [1], the “Jss, the steady-state flux” value is given as 0.06 ± 0.01 µg/cm^2⋅h^–1. Also, the solubility thermodynamic at 48 h was 1442 ± 5.58 µg/mL (≈ 3910 µM) in data set [3] (setting [4]); 83.6 ± 18.1 µg/mL (≈ 227 µM) in data set [3] (setting [5]); 8.29 ± 0.27 µg/mL (≈ 22.5 µM) in data set [3] (setting [6]); no more than 10 µg/mL in data set [3] (water, 32 °C, read-out: Equilibrium solubility Water).
With `CC(=O)Oc1cccc2c1C(=O)c1c(OC(C)=O)cc(C(=O)O)cc1C2=O.CCNCC` [DCN-Dea], in data set [1], the “Q24h, the cumulative amount of drug permeated per unit area at 24 h” value turned out to be 2.82 ± 0.49 µg/cm^2; the Tlag is given as 4.12 ± 1.14 h; the “Jss, the steady-state flux” value is 0.10 ± 0.01 µg/cm^2⋅h^–1.
For `CC(=O)Oc1cccc2c1C(=O)c1c(OC(C)=O)cc(C(=O)O)cc1C2=O.OCCN(CCO)CCO` [DCN-Teta], the “transdermal permeation rate (comparison in words)” value in data set [1] (porcine ear skin in vitro) is reported as “highest transdermal permeation rate”. Moreover, in data set [1], the “Q24h, the cumulative amount of drug permeated per unit area at 24 h” value is on record as 7.89 ± 0.38 µg/cm^2; the Tlag is 1.52 ± 0.48 h; the “Jss, the steady-state flux” value is 0.17 ± 0.05 µg/cm^2⋅h^–1.
